Series [1] can be described thus: Pets drinking iodinated water, observation for ill effects. The class given is in vivo, dogs and cats.
The nature of series [2]: Loss of I2 from water at room temperature (hydrolysis / out gassing). The class given is physicochemical. On the procedure: The only significant anti-infective iodine species in water is molecular iodine (I2). In the pH range of 6.0<->7.0, I2 is favored when I2 is added directly into water. […] If the pH of the water is kept at about pH 6.0, I2 is favored, but if the pH is above 7.0, I2 will hydrolyze (3) to I^− and HOI and I3^− (7) can form and accumulate in the water. I have determined experimentally that I2 is lost from the water at room temperature at a linear rate of about 0.3 mcg/mL/hour when the pH of the water was adjusted to ˜pH5-5.5 with acetic acid to prolong survival of I2 in water. Thus after 24 hours >90% of the I2 is lost either to hydrolysis
or volatile I2 via out gassing. At higher pH, the iodine will dissipate faster or be converted to HOI. At neutral pH=7 the I2 loss is ˜0.5 mcg/mL/hr so that >90% is gone within 4 hours.

`II` [I2, molecular iodine]: in series [1] (dogs and cats followed for 3 weeks, 1-5 mcg/mL in drinking water), the ill effects result is “no ill effects were noted”. Moreover, the “changes in pet behavior, food consumption or excretion” value in series [1] (two 35 kg dogs and two 4 kg cats, drinking water with average about 5 mcg/mL I2, followed for 4 days) is listed as “no obvious changes in pet behavior, food consumption or excretion”. For the same compound, the “I2 lost (hydrolysis or out gassing)” value in series [2] (after 24 hours, ~pH5-5.5, room temperature) is more than 90%. In series [2] (neutral pH=7), this compound had an I2 loss rate of approximately 0.5 µg/mL/h. The “rate of I2 loss from the water (linear)” value in series [2] (room temperature, water adjusted to ~pH5-5.5 with acetic acid) is “about 0.3 mcg/mL/hour”. Besides, the I2 gone in series [2] (within 4 hours, neutral pH=7) is recorded as more than 90%.
